Experiment [1] relates to humans with histories of allergic rhinitis. The settings on record: orally 500 ug once daily for 9 days; intranasal allergen provocation (pollen extracts); cited from earlier work.
For the next experiment, the system named is COPD patients. To be noted: cited from earlier work.
Experiment [2] relates to atopic dermatitis patients. The settings on record: 0.5% ointment, twice daily topical application; cited from earlier work.
The target of experiment [3] is T1, PDE4B (human recombinant) (Homo sapiens, UniProt Q07343).
T1 construct: made in house
T1 sequence (Q07343 1-564 isoform Q07343-2): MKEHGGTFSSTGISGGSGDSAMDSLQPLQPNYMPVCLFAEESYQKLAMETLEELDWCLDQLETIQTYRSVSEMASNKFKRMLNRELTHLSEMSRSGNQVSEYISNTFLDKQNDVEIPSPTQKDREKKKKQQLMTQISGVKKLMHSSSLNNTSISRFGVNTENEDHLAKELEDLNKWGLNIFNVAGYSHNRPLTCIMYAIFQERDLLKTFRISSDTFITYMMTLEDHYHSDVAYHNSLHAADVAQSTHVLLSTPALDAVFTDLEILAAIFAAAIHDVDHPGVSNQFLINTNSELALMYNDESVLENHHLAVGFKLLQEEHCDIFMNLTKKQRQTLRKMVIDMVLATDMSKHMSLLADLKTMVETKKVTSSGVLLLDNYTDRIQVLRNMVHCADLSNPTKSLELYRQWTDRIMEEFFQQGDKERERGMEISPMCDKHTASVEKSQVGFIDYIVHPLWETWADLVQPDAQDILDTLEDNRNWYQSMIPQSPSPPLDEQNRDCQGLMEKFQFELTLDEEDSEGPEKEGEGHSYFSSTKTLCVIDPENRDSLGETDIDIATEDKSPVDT
Briefly: PDE4B inhibition, fluorescence polarisation (FP) and/or SPA assay. It is filed as biochemical. To be noted: n=1 or average of 2 or more readings, accuracy ±about 0.5 log unit, read-out: PDE4B pIC50 (generally in FP assay) (±about 0.5) (converted). From the text: Human recombinant PDE4B, in particular the 2B splice variant thereof (HSPDE4B2B), is disclosed in WO 94/20079 and also M. M. McLaughlin et al., “A low Km, rolipram-sensitive, cAMP-specific phosphodiesterase from human brain: cloning and expression of cDNA, biochemical characterisation of recombinant protein, and tissue distribution of mRNA”, J. Biol. Chem., 1993, 268, 6470-6476. For example, in Example 1 of WO 94/20079, human recombinant PDE4B is described as being expressed in the PDE-deficient yeast Saccharomyces cerevisiae strain GL62, e.g. after induction by addition of 150 uM CuSO4, and 100,000×g supernatant fractions of yeast cell lysates are described for use in the harvesting of PDE4B enzyme.
The ability of compounds to inhibit catalytic activity at PDE4B or 4D (human recombinant), PDE3 (from bovine aorta), PDE5 (human recombinant) or PDE6 (from bovine retina) can optionally be determined by Scintillation Proximity Assay (SPA) in a 96-well format.
Test compounds (as a solution in DMSO, preferably about 2 microliter (ul) volume of DMSO solution) are preincubated at ambient temperature (room temperature, e.g. 19-23° C.) in Wallac Isoplates (code 1450-514) with PDE enzyme in 50 mM Tris-HCl buffer pH 7.5, 8.3 mM MgCl2, 1.7 mM EGTA, 0.05% (w/v) bovine serum albumin for 10-30 minutes (usually 30 minutes). The enzyme concentration is adjusted so that no more than 20% hydrolysis of the substrate defined below occurs in control wells without compound, during the incubation. For the PDE3, PDE4B and PDE4D assays, [5′,8-3H]Adenosine 3′,5′-cyclic phosphate (Amersham Pharmacia Biotech, code TRK.559; or Amersham Biosciences UK Ltd, Pollards Wood, Chalfont St Giles, Buckinghamshire HP8 4SP, UK) is added to give 0.05 uCi per well and about 10 nM final concentration. For the PDE5 and PDE6 assays, [8-^3H]Guanosine 3′,5′-cyclic phosphate (Amersham Pharmacia Biotech, code TRK.392) is added to give 0.05 uCi per well and about 36 nM final concentration. Plates containing assay mixture, preferably approx. 100 ul volume of assay mixture, are mixed on an orbital shaker for 5 minutes and incubated at ambient temperature for 1 hour. Phosphodiesterase SPA beads (Amersham Pharmacia Biotech, code RPNQ 0150) are added (about 1 mg per well) to terminate the assay. Plates are sealed and shaken and allowed to stand at ambient temperature for 35 minutes to 1 hour (preferably 35 minutes) to allow the beads to settle. Bound radioactive product is measured using a WALLAC TRILUX 1450 Microbeta scintillation counter. For inhibition curves, 10 concentrations (e.g. 1.5 nM-30 uM) of each compound are assayed. Curves are analysed using ActivityBase and XLfit (ID Business Solutions Limited, 2 Ocean Court, Surrey Research Park, Guildford, Surrey GU2 7QB, United Kingdom) Results are expressed as pIC50 values.
The ability of compounds to inhibit catalytic activity at PDE4B (human recombinant) or PDE4D (human recombinant) can optionally be determined by IMAP Fluorescence Polarisation (FP) assay (IMAP Explorer kit, available from Molecular Devices Corporation, Sunnydale, Calif., USA; Molecular Devices code: R8062) in 384-well format.
The IMAP FP assay is able to measure PDE activity in an homogenous, non-radioactive assay format. The FP assay uses the ability of immobilised trivalent metal cations, coated onto nanoparticles (tiny beads), to bind the phosphate group of FI-AMP that is produced on the hydrolysis of fluorescein-labelled (FI) cyclic adenosine mono-phosphate (FI-cAMP) to the non-cyclic FI-AMP form. […] Binding of FI-AMP product to the beads (coated with the immobilised trivalent cations) slows the rotation of the bound FI-AMP and leads to an increase in the fluorescence polarisation ratio of parallel to perpendicular light. Inhibition of the PDE reduces/inhibits this signal increase. […]

Experiment [4] relates to TNF-α production in human PBMC (peripheral blood mononuclear cells). The experiment can be described thus: Inhibition of TNF-alpha production in human PBMC (MSD technology). It is filed as cell-based. To be noted: inhibition of LPS-stimulated TNF-α production in human PBMC; measured and/or mean; read-out: PBMC pIC50 (MSD assay) (converted). As for the experimental part: A 96-well plate (96 MicroWell™ Plates Nunclon™Δ-High Flange Design, Fisher Scientific UK, Bishop Meadow Road, Loughborough LE 11 5 RG, Leicestershire, UK) is prepared by initially adding to column 1 ca. 10 mM of test compound dissolved in DMSO. […] The compound is further diluted with DMSO into columns 2 to 9 by 8 successive 3fold dilutions using the Biomek® FX Laboratory Automation Workstation (Beckman Coulter, Inc., 4300 N. Harbor Boulevard, P.O. Box 3100, Fullerton, Calif. 92834-3100 USA). Column 10 is used as a DMSO negative control (High Signal, 0% response), whilst column 11, which contains 10 mM of the PDE4 inhibitor roflumilast, is used as a positive control (Low Signal, 100% response). About 1 μl (about 1 ul) of compound is transferred to the compound plate using the Biomek® FX.
PBMC cells (peripheral blood mononuclear cells) are prepared from heparinised human blood (using 1% v/v Heparin Sodium 10001 U/ml Endotoxin Free, Leo Laboratories Ltd., Cashel Road, Dublin 12. Ireland, Cat No: PL0043/0149) from normal volunteers using the Accuspin™ System-Histopaque®-1077 essentially (Sigma-Aldrich Company Ltd., The Old Brickyard New Rd, Gillingham Dorset SP8 4XT). About 20 ml of blood is overlaid onto 15 ml Histopaque® in Accuspin™ tubes. The tube is then centrifuged at about 800 g for ca. 20 minutes. The cells are collected from the interface, washed by centrifugation (ca. 1300 g, ca. 10 minutes) and resuspended in RPMI1640 medium (Low endotoxin RPMI1640 medium, Cat No: 31870-025, Invitrogen Corporation Invitrogen Ltd, 3 Fountain Drive, Inchinnan Business Park, Paisley PA4 9RF, UK) containing 10% foetal calf serum, 1% L-glutamine (Invitrogen Corporation, Cat No: 25030024) and 1% penicillin/streptomycin (Invitrogen Corporation, Cat No: 15140-122). Viable cells are counted by trypan blue staining and diluted to 1×10^6 viable cells/ml. About 50 μl (about 50 ul) of diluted cells and about 75 μl (about 75 ul) of LPS (ca. 1 ng/ml final; Sigma Cat No: L-6386) are added to the compound plate, which is then incubated at 37° C., 5% CO2, for 20 hours.
The supernatant is removed and the concentrations of TNF-α are determined by electrochemiluminescence assay using the Meso Scale Discovery (MSD) technology (Meso Scale Discovery, 9238 Gaither Road, Gaithersburg, Md. 20877, USA). See the “TNF-α (TNF-alpha) MSD Assay” described below for typical details.
Using the Biomek FX, 25 μl (25 ul) of MSD Human Serum Cytokine Assay Diluent (Meso Scale Discovery, 9238 Gaither Road, Gaithersburg, Md. 20877) is added to a 96-well High-Bind MSD plate pre-coated with anti-hTNF alpha capture antibody (MA6000) and then incubated for 24 hours at 4° C. to prevent non-specific binding. […]
For the PBMC assay, about 20 μl (ul) of diluted sulfo-TAG antibody (ca. 1 μg/ml final) is added to each well, and the plates/wells are shaken at room temperature for 2 hours. Finally, about 90 μl (ul) of MSD Read Buffer P (diluted to 2.5 times with distilled water) is added and the plates are read on a MSD Sector 6000.
Data analysis is performed with ActivityBase/XC50 module (ID Business Solutions Ltd., 2 Occam Court, Surrey Research Park, Guildford, Surrey, GU2 7QB UK). Data are normalized and expressed as % inhibition using the formula 100*((U-C1)/(C2-C1)) where U is the unknown value, C1 is the average of the high signal (0%) control wells (column 10), and C2 is the average of the low signal (100%) control wells (column 11). […]

For experiment [5], the system named is atopic dermatitis patients. The settings on record: 0.15% cream versus vehicle and hydrocortisone 17-butyrate (0.1%) cream; cited from earlier work.

As to `O=C(Nc1c(Cl)cncc1Cl)c1ccc(OC(F)F)c(OCC2CC2)c1` [roflumilast], the “rhinal airflow during the treatment period (compared to placebo)” value in experiment [1] is listed as “effective in improving rhinal airflow”. Moreover, the “FEV1 in COPD patients” value in the experiment on COPD patients (COPD patients, dose not stated) is recorded as “small improvements”.
In the case of `COc1ccc([C@]2(C#N)CC[C@@H](C(=O)O)CC2)cc1OC1CCCC1` [cilomilast], the “forced expiratory volume in 1 s (FEV1) in COPD patients” value in the experiment with COPD patients (15 mg orally twice daily) was “appears to improve”. Also, the “antiinflammatory effects in COPD patients” value with COPD patients (COPD patients) was “appears to have antiinflammatory effects”.
For `COc1ccc(C2CNC(=O)NC2)cc1O[C@H]1C[C@@H]2CC[C@H]1C2` [CP80,633], the “inflammatory parameters in atopic dermatitis patients” value in experiment [2] is on record as “reductions of inflammatory parameters”.
As to `CCc1nc2c(cnn2CC)c(NC2CCOCC2)c1CNC(=O)c1cccc(-c2cccc(C(=O)NCc3c(CC)nc4c(cnn4CC)c3NC3CCOCC3)c2)c1` [Example 10, N,N′-bis{[1,6-diethyl-4-(tetrahydro-2H-pyran-4-ylamino)-1H-pyrazolo[3,4-b]pyridin-5-yl]methyl}-3,3′-biphenyldicarboxamide], the IC50 in experiment [3] is around 0.1 nM; in experiment [4], around 0.02 nM.
As for `CCn1ncc2c(NC3CCOCC3)c(CNC(=O)c3ccc(-c4ccc(C(=O)NCc5c(C)nc6c(cnn6CC)c5NC5CCOCC5)cc4)cc3)c(C)nc21` [Example 28, N,N′-bis{[1-ethyl-6-methyl-4-(tetrahydro-2H-pyran-4-ylamino)-1H-pyrazolo[3,4-b]pyridin-5-yl]methyl}-4,4′-biphenyldicarboxamide], the IC50 in experiment [3] is around 0.0251 nM; in experiment [4], around 0.126 nM.
With `Nc1nc2c([nH]1)c(=O)n(CC1CC1)c(=O)n2CC1CC1` [cipamfylline], the “effectiveness in the treatment of atopic dermatitis patients” value in experiment [5] is reported as “significantly more effective than vehicle, but significantly less effective than hydrocortisone 17-butyrate (0.1%) cream”.

The values are drawn from US20090326003A1, “PYRAZOLO (3, 4-B) PYRIDINE DERIVATIVES AS PDE4 INHIBITORS” (priority 2006, published 2009).
